Results from ChEMBL document CHEMBL1201862, “PubChem BioAssay data set” (2004).
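Results reflect a 48-hour exposure of cells in 96-well plates to compound at five concentrations. GI50 is the concentration that inhibits growth by half.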 Calls of active or inactive are those of the source. Cut-off read from the data, not from the text of the source: active = GI50 up to about 1.1 µM and inactive = higher.

Assays:
Test in all cases: growth of human tumour cells (NCI), 48 h
[1] = test system: A498
[2] = test system: ACHN
[3] = test system: HOP-62
[4] = test system: IGROV-1
[5] = test system: KM12
[6] = test system: M19-MEL
[7] = test system: NCI-H226
[8] = test system: NCI-H23
[9] = test system: NCI-H460
[10] = test system: OVCAR-5
[11] = test system: RPMI-8226
[12] = test system: RXF 393
[13] = test system: SF-268
[14] = test system: SK-MEL-28
[15] = test system: SNB-75
[16] = test system: SR
[17] = test system: UACC-62
[18] = test system: Hs-578T
[19] = test system: MDA-N
[20] = test system: PC-3

| SMILES | GI50 [1] | GI50 [2] | GI50 [3] | GI50 [4] | GI50 [5] | GI50 [6] | GI50 [7] | GI50 [8] | GI50 [9] | GI50 [10] | GI50 [11] | GI50 [12] | GI50 [13] | GI50 [14] | GI50 [15] | GI50 [16] | GI50 [17] | GI50 [18] | GI50 [19] | GI50 [20] |
| --- | --- | --- | --- | --- | --- | --- | --- | --- | --- | --- | --- | --- | --- | --- | --- | --- | --- | --- | --- | --- |
| O=C(/C=C/c1ccccc1)/C=C/c1ccccc1 | > 100 µM (inactive) | 18.9 µM (inactive) | > 100 µM (inactive) | 28.1 µM (inactive) | 18 µM (inactive) | 20.6 µM (inactive) | > 100 µM (inactive) | 29.7 µM (inactive) | 27.5 µM (inactive) | > 100 µM (inactive) | 39.3 µM (inactive) | 34.4 µM (inactive) | 28.4 µM (inactive) | 18.5 µM (inactive) | 47.6 µM (inactive) | 26.2 µM (inactive) | 33 µM (inactive) |  |  |  |
| CNS(=O)(=O)NNS(=O)(=O)c1ccccc1 | > 100 µM (inactive) | > 100 µM (inactive) | > 100 µM (inactive) | > 100 µM (inactive) | > 100 µM (inactive) | > 100 µM (inactive) | > 100 µM (inactive) | > 100 µM (inactive) | > 100 µM (inactive) | > 100 µM (inactive) | > 100 µM (inactive) | > 100 µM (inactive) | > 100 µM (inactive) | > 100 µM (inactive) | > 100 µM (inactive) | > 100 µM (inactive) | > 100 µM (inactive) |  |  |  |
| C[Si](C)(C)OC1CC(=O)OC1n1cc(F)c(=O)[nH]c1=O (centres undefined) | > 100 µM (inactive) | 11.7 µM (inactive) | 15.7 µM (inactive) | > 96.6 µM (inactive) | 18.1 µM (inactive) | 12.1 µM (inactive) | > 86.9 µM (inactive) | > 27.8 µM (inactive) | 3.72 µM (inactive) | > 89.9 µM (inactive) | 3.14 µM (inactive) | > 43.6 µM (inactive) | 50.7 µM (inactive) | 15.8 µM (inactive) | 65.9 µM (inactive) | 2.31 µM (inactive) | 10.8 µM (inactive) |  |  |  |
| C=C(CCCCC)CN1CCCC1[C@@](C)(O)CC(=O)OCC (some centres undefined) | > 100 µM (inactive) | > 100 µM (inactive) | > 100 µM (inactive) | > 100 µM (inactive) | > 100 µM (inactive) | > 100 µM (inactive) | > 100 µM (inactive) | > 100 µM (inactive) | > 100 µM (inactive) | > 100 µM (inactive) | > 100 µM (inactive) | > 100 µM (inactive) | > 100 µM (inactive) | > 100 µM (inactive) | > 100 µM (inactive) | 71.8 µM (inactive) | > 100 µM (inactive) |  |  |  |
| COc1ccc(C2=CN3CCC[C@H]3C=C2c2cc(O)c(OC)c(OC)c2)cc1OC | 0.005 µM (active) | 0.00302 µM (active) | 0.0065 µM (active) | 0.0104 µM (active) | 0.00337 µM (active) | 0.00274 µM (active) | 0.00376 µM (active) | 0.00378 µM (active) | 0.00316 µM (active) | 0.00561 µM (active) | 0.00519 µM (active) | 0.00424 µM (active) | 0.00454 µM (active) | 0.0045 µM (active) | 0.00227 µM (active) | 0.00394 µM (active) | 0.00405 µM (active) | 0.00539 µM (active) | 0.00337 µM (active) | 0.0124 µM (active) |
| Cc1ccc(NC(=O)COC(=O)c2cccc3c(=O)c4ccccc4[nH]c23)cc1 | 19.1 µM (inactive) | 27 µM (inactive) | 60.5 µM (inactive) | 44.8 µM (inactive) | 22.1 µM (inactive) | 46.7 µM (inactive) | 26.5 µM (inactive) | 17.8 µM (inactive) | 35.2 µM (inactive) |  | 87.7 µM (inactive) | 22.8 µM (inactive) | 35.6 µM (inactive) | 47.4 µM (inactive) | 31.3 µM (inactive) | 13 µM (inactive) | 30.6 µM (inactive) |  |  |  |
| O=C(OCCOCCOC(=O)c1c[nH]cc1-c1ccccc1)c1c[nH]cc1-c1ccccc1 | 19.3 µM (inactive) |  | 17.3 µM (inactive) | 21.3 µM (inactive) | 20.2 µM (inactive) | 18.7 µM (inactive) | 19.2 µM (inactive) | 17.1 µM (inactive) | 21.2 µM (inactive) | 25.8 µM (inactive) | 15 µM (inactive) | 15.4 µM (inactive) | 15.5 µM (inactive) |  | 17.2 µM (inactive) | 21 µM (inactive) | 15.9 µM (inactive) |  |  |  |
| Nc1ccc(C(=O)Nc2ccccc2N)cc1 [DINALINE] | 27.5 µM (inactive) | 31.7 µM (inactive) | 18.7 µM (inactive) | 31.1 µM (inactive) | 44.5 µM (inactive) | 25.7 µM (inactive) | > 78.5 µM (inactive) | 29.1 µM (inactive) | 18.5 µM (inactive) | 8.15 µM (inactive) | 5.68 µM (inactive) | 38.2 µM (inactive) | 31.1 µM (inactive) | 24.5 µM (inactive) | > 36.3 µM (inactive) | 16.3 µM (inactive) | 16.1 µM (inactive) | 22.3 µM (inactive) | 32.1 µM (inactive) | 31.5 µM (inactive) |
| CO[C@H]1[C@H](O)[C@H](O[C@H]2CC[C@@]3(C)[C@H](CC[C@@H]4[C@@H]3CC[C@]3(C)[C@@H](C5=CC(=O)OC5)CC[C@]43O)C2)O[C@@H](C)[C@@H]1O [NERIIFOLIN] | 0.00863 µM (active) | 0.000224 µM (active) | 0.00027 µM (active) | 0.000526 µM (active) | 0.00152 µM (active) | 0.00363 µM (active) | 0.00596 µM (active) | 0.000394 µM (active) | 0.0006 µM (active) | 0.00154 µM (active) | 0.00111 µM (active) | < 0.01 µM (active) | 0.000444 µM (active) | 0.00189 µM (active) | 0.000483 µM (active) | < 0.01 µM (active) | 0.00155 µM (active) | < 0.0001 µM (active) | < 0.0001 µM (active) | 0.000724 µM (active) |
